Data from paper PMC2882366 (PLoS ONE, 2010).
Where two headings read alike, the source gives them in different places.

Experiment: Rapamycin whole blood pharmacokinetics (HPLC-MS/MS, non-compartmental) in dogs with osteosarcoma
Assay type: in vivo, dog
Settings: for measurable trough levels: CD8, CD9; for concentration at 15 day / concentration at 8 day / concentration at 9 day / concentration at 48 h / Tmax / half-life / Cmax / AUC(0-t): dog, whole blood; for concentration at 15 day / concentration at 8 day / concentration at 9 day / concentration at 48 h: intramuscular; for concentration at 15 day: Day 15 (seven days after cessation), read-out: CD15; for concentration at 8 day: trough Day 8, median (range), read-out: CD8; for concentration at 9 day: trough Day 9, median (range), read-out: CD9; for concentration at 48 h: 48 h after first dose, read-out: C48h; for AUC(0-t): read-out: AUC0–48
Procedure: Subsequent doses were administered on days 3–8. Additional pharmacokinetic samples were obtained on days 8 (192h, day of definitive resection) and 9 (hr 216, after last day of dosing) and 15 (360 hr). […] Whole blood was transferred to cyrovials and stored at −80°C until analysis. Whole blood, serum and plasma were collected from all patients. Serum and plasma samples were stored for post-hoc hypothesis generating assessments.
The eluate was analyzed using HPLC with MS/MS detection. […] Clinical sample results were calculated using peak area ratios and calibration curves were generated using a weighted (1/x^2) linear least-squares regression. […] All data were acquired, processed, and reported using Applied Biosystems/MDS-Sciex Analyst Version 1.4 software (www.lifetechnologies.com, Carlsbad, CA).
Area under the concentration time curve to the time point measured at 48hr after the first dose (AUC0–48h) was calculated with the linear trapezoidal method. The terminal rate constant was derived from the slope of the natural log transformed concentrations and times on the terminal elimination phase of the decay curve. Terminal elimination half-life was calculated by dividing 0.693 by the terminal rate constant. The relationship of pharmacokinetic parameters and pharmacodynamic variables were examined using scatter plots.

[1] = Mixed Breed (2 dogs), Boxer (1 dog), 0.04 mg/kg IM daily, N=3
[2] = Mixed Breed (2 dogs), Boxer (1 dog), 0.04 mg/kg IM, after first dose, median (range), N=3
[3] = 0.01 mg/kg IM, after first dose, median (range), N=3
[4] = 0.06 mg/kg IM, after first dose, median (range), N=7
[5] = 0.08 mg/kg IM, after first dose, median (range), N=4
[6] = 0.02 mg/kg IM, after first dose, median (range), N=4

## CO[C@H]1C[C@@H]2CC[C@@H](C)[C@@](O)(O2)C(=O)C(=O)N2CCCC[C@H]2C(=O)O[C@H]([C@H](C)C[C@@H]2CC[C@@H](O)[C@H](OC)C2)CC(=O)[C@H](C)/C=C(\C)[C@@H](O)[C@@H](OC)C(=O)[C@H](C)C[C@H](C)/C=C/C=C/C=C/1C [rapamycin, Rapamycin]
0.06 mg/kg (approx 2.1 mg/day) IM daily
  median trough concentrations on day 8 and 9 (CD8, CD9): greater than 10 ng/mL
0.08 mg/kg (approx 2.8 mg/day) IM daily
  median trough concentrations on day 8 and 9 (CD8, CD9): greater than 10 ng/mL
4th dose cohort (0.06 mg/kg, approx 2.1 mg)
  measurable trough levels: ≥ 10 ng/mL
5th dose cohort (0.08 mg/kg, approx 2.8 mg)
  measurable trough levels: ≥ 10 ng/mL
Mixed Breed (2 dogs), Boxer (1 dog), 0.04 mg/kg IM daily, median (range), N=3
  concentration at 15 day: 1.56 ng/mL
[1]
  concentration at 8 day: 6.62 ng/mL
  concentration at 9 day: 7.92 ng/mL
Mixed Breed (2 dogs), Boxer (1 dog), 0.04 mg/kg IM, median (range), N=3
  concentration at 48 h: 1.86 ng/mL
[2]
  Tmax: 24 h
  Cmax: 2.87 ng/mL
  AUC(0-t): 105 ng·h/mL
Mixed Breed (2 dogs), Boxer (1 dog), 0.04 mg/kg IM, terminal half-life, median (range), N=3, read-out: T1/2 (converted)
  half-life: 62.7 h
After 8 days of exposure, daily IM
  Steady state: not achieved
Both sexes, all dogs, 0.01–0.08 mg/kg IM, range
  Tmax: 2 to 48 h
Both sexes, dogs, IM, read-out: terminal half-life
  half-life: > 60 h
im, 0.01 mg/kg, read-out: T1/2 (converted)
  half-life: 115 h
0.01 mg/kg IM daily, median (range), N=3
  concentration at 15 day: 0.45 ng/mL
0.01 mg/kg IM daily, N=3
  concentration at 8 day: 2.78 ng/mL
  concentration at 9 day: 1.92 ng/mL
0.01 mg/kg IM, median (range), N=3
  concentration at 48 h: 0.91 ng/mL
0.02 mg/kg IM daily, median (range), N=4
  concentration at 15 day: 0.86 ng/mL
0.02 mg/kg IM daily, N=4
  concentration at 8 day: 5.63 ng/mL
  concentration at 9 day: 5.93 ng/mL
0.02 mg/kg IM, median (range), N=4
  concentration at 48 h: 1.26 ng/mL
0.06 mg/kg IM daily, median (range), N=7
  concentration at 15 day: 1.04 ng/mL
0.06 mg/kg IM daily, N=7
  concentration at 8 day: 9.84 ng/mL
  concentration at 9 day: 9.3 ng/mL
0.06 mg/kg IM, median (range), N=7
  concentration at 48 h: 3.61 ng/mL
0.08 mg/kg IM daily, median (range), N=4
  concentration at 15 day: 3.66 ng/mL
0.08 mg/kg IM daily, N=4
  concentration at 8 day: 15.4 ng/mL
  concentration at 9 day: 16.4 ng/mL
0.08 mg/kg IM, median (range), N=4
  concentration at 48 h: 4.6 ng/mL
[3]
  Tmax: 24 h
  Cmax: 1.27 ng/mL
  AUC(0-t): 47.4 ng·h/mL
0.02 mg/kg IM, after first dose, median, N=4
  Tmax: 24 h
0.02 mg/kg IM, terminal half-life, median (range), N=4, read-out: T1/2 (converted)
  half-life: 70.8 h
[4]
  Tmax: 6 h
  Cmax: 7.29 ng/mL
  AUC(0-t): 285 ng·h/mL
0.06 mg/kg IM, terminal half-life, median (range), N=7, read-out: T1/2 (converted)
  half-life: 72.7 h
[5]
  Tmax: 15 h
  Cmax: 12.1 ng/mL
  AUC(0-t): 309 ng·h/mL
0.08 mg/kg IM, terminal half-life, median (range), N=4, read-out: T1/2 (converted)
  half-life: 86.6 h
[6]
  Cmax: 1.69 ng/mL
  AUC(0-t): 64.3 ng·h/mL
Dose range 0.01–0.08 mg/kg IM
  systemic exposure (Cmax and AUC0–48h) versus dose: increased proportionally to rapamycin dose
